Assay: Excipient compatibility: montelukast sodium/excipient mixtures stored at 55° C. for 48 hours, sulfoxide of formula (I) by HPLC
Assay type: physicochemical
Conditions: for % Sulfoxide of Formula (I), 0 hours: by weight relative to montelukast sodium, before storage
Experimental: Comparative testing with montelukast sodium was performed to determine the conditions which cause the degradation of montelukast sodium into the corresponding sulfoxide. Compositions of montelukast sodium and each of the excipients of the prior art tablets were prepared and subjected to stressed storage conditions. The amount of the corresponding sulfoxide present in each of the compositions was measured by high performance liquid chromatography (“HPLC”) both before and after storage.
Sample mixtures of montelukast sodium and each of the individual excipients were prepared. Each sample was stored at 55° C. for 48 hours. The percentage by weight of sulfoxide of formula (I) relative to montelukast sodium in each sample was measured at 0 hours and at 48 hours by HPLC. HPLC was performed on a Beta-Basic C18 analytical column (150×4.6 mm I.D.), packed with 5 μm diameter particles (Thermo Election Corporation). The mobile phase was a mixture of acetonitrile and 20 mM KH2PO4 (60:40) and its flow-rate was 1.5 mL/min. The UV detector was set at 225 nm or 281 nm and the column temperature was 40° C.

| % Sulfoxide of Formula (I), 0 hours [%] | increase of the amount of the corresponding sulfoxide in the composition over the storage period (in the presence of microcrystalline cellulose, stressed storage conditions) | SMILES |
| --- | --- | --- |
| 0.26 | – | CC(C)(O)c1ccccc1CC[C@@H](SCC1(CC(=O)[O-])CC1)c1cccc(/C=C/c2ccc3ccc(Cl)cc3n2)c1.[Na+] [Sample 7, Montelukast sodium] |
| – | over 250% | CC(C)(O)c1ccccc1CC[C@@H](SCC1(CC(=O)[O-])CC1)c1cccc(/C=C/c2ccc3ccc(Cl)cc3n2)c1.[Na+] [montelukast sodium, [R-(E)]-1-[[[1-[3-[2-(7-chloro-2-quinolinyl)ethenyl]phenyl]-3-[2-(1-hydroxy-1-methylethyl)phenyl]propyl]thio]methyl]cyclopropaneacetic acid, monosodium salt] |
| 0.63 | – | CC(C)(O)c1ccccc1CC[C@@H](SCC1(CC(=O)[O-])CC1)c1cccc(/C=C/c2ccc3ccc(Cl)cc3n2)c1.[Na+] [Sample 1, Montelukast sodium] |

Source: patent publication US20100120848A1, “STABLE PHARMACEUTICAL FORMULATIONS OF MONTELUKAST SODIUM” (Teva Pharmaceutical Industries Ltd., priority 2006, published 2010)
